For assay [1], the system named is Staphylococcus epidermidis. Kind of assay: Antibacterial activity against Staphylococcus epidermidis ATCC 12228. Type of assay: functional.
A further assay has as its system Micrococcus luteus. Kind of assay: Antibacterial activity against Micrococcus luteus PTCC 1110. Format: functional.
A further assay concerns Streptococcus mutans. Kind of assay: Antibacterial activity against Streptococcus mutans PTCC 1601. Format: functional.
Another assay has as its system Klebsiella pneumoniae. Nature of the assay: Antibacterial activity against Klebsiella pneumoniae ATCC 29655. Format: functional.
The subject of assay [2] is Pseudomonas aeruginosa. Kind of assay: Antibacterial activity against Pseudomonas aeruginosa ATCC 85327. Type of assay: functional.
Assay [3] concerns Bacillus subtilis. Nature of the assay: Antibacterial activity against Bacillus subtilis ATCC 465. Type of assay: functional.
The subject of assay [4] is Staphylococcus aureus. Kind of assay: Antibacterial activity against Staphylococcus aureus ATCC 25923. Format: functional.
The subject of assay [5] is Escherichia coli. Nature of the assay: Antimicrobial activity against Escherichia coli ATCC 25922. Format: functional.
In the next assay the test system is Bacillus pumilus. Nature of the assay: Antibacterial activity against Bacillus pumilus PTCC 1114. Format: functional.
In another assay the test system is Enterococcus faecalis. Nature of the assay: Antibacterial activity against Enterococcus faecalis ATCC 29737. Type of assay: functional.
The test system of a further assay is DU-145. Kind of assay: Cytotoxicity against human DU-145 cells incubated for 48 hrs by MTT assay. Format: functional, cell-based. The following applies: DU-145, 48 h. A general note: Tetrazolium assays rely on reduction of a dye to a coloured formazan, in cell work by metabolically active cells.
The subject of the next assay is A549. Kind of assay: Cytotoxicity against human A549 cells incubated for 48 hrs by MTT assay. Format: functional, cell-based. The following applies: A549, 48 h.
In another assay the test system is MCF7. Kind of assay: Cytotoxicity against human MCF7 cells incubated for 48 hrs by MTT assay. Type of assay: functional, cell-based. Conditions: MCF7, 48 h.
In assay [6] the test system is HeLa. Kind of assay: Cytotoxicity against human HeLa cells incubated for 48 hrs by MTT assay. Format: functional, cell-based.
Assay [7] has as its system Pseudomonas aeruginosa. Nature of the assay: Antibacterial activity against multidrug resistant Pseudomonas aeruginosa 034. Format: functional.
Assay [8] concerns Pseudomonas aeruginosa. Nature of the assay: Antibacterial activity against multidrug resistant Pseudomonas aeruginosa 025. Format: functional.
Assay [9] concerns Candida albicans. Kind of assay: Antifungal activity against Candida albicans RCMB 05036 assessed as zone of inhibition. Format: functional.
For a further assay, the system named is Aspergillus fumigatus. Nature of the assay: Antifungal activity against Aspergillus fumigatus RCMB 02568 assessed as zone of inhibition. Format: functional.
In another assay the test system is Geotrichum candidum. Kind of assay: Antifungal activity against Geotrichum candidum RCMB 05097 assessed as zone of inhibition. Type of assay: functional.
The subject of assay [10] is Syncephalastrum racemosum. Kind of assay: Antifungal activity against Syncephalastrum racemosum RCMB 05922 assessed as zone of inhibition. Format: functional.
The test system of the next assay is Aspergillus flavus. Nature of the assay: Antifungal activity against Aspergillus flavus. Type of assay: functional.
Assay [11] concerns Aspergillus niger. Nature of the assay: Antifungal activity against Aspergillus niger. Format: functional.
In the next assay the test system is Salmonella sp. Nature of the assay: Antibacterial activity against Salmonella sp. NCIM 2501 by microdilution broth method. Format: functional. In general terms: In broth dilution the organism is exposed to a series of concentrations in liquid medium.
Assay [12] has as its system Staphylococcus aureus. Nature of the assay: Antibacterial activity against Staphylococcus aureus NCIM5021 by microdilution broth method. Format: functional.
Assay [13] concerns Escherichia coli. Nature of the assay: Antibacterial activity against Escherichia coli NCIM 2931 by microdilution broth method. Type of assay: functional.
The subject of a further assay is Proteus vulgaris. Nature of the assay: Antibacterial activity against Proteus vulgaris NCIM 2813 by microdilution broth method. Type of assay: functional.
Assay [14] has as its system Pseudomonas aeruginosa. Kind of assay: Antibacterial activity against Pseudomonas aeruginosa NCIM 5029 by microdilution broth method. Format: functional.
Assay [15] deals with Escherichia coli. Nature of the assay: Antibacterial activity against Escherichia coli assessed as zone of inhibition. Type of assay: functional.
Assay [16] concerns Staphylococcus aureus. Kind of assay: Antibacterial activity against Staphylococcus aureus assessed as zone of inhibition. Format: functional.
Assay [17] relates to Staphylococcus aureus. Kind of assay: Antibacterial activity against Staphylococcus aureus by disc diffusion method. Format: functional. A general note: Agar diffusion results depend on both activity and mobility in agar.
The test system of assay [18] is Escherichia coli. Kind of assay: Antibacterial activity against Escherichia coli by disc diffusion method. Format: functional.
The subject of assay [19] is Bacillus subtilis. Kind of assay: Antibacterial activity against Bacillus subtilis by agar well diffusion method. Type of assay: functional.
The test system of another assay is Candida metapsilosis. Nature of the assay: Antifungal activity against Candida metapsilosis assessed as zone of inhibition at 25 ug/ml. The following applies: Lodderomyces metapsilosis, read-out: DIZ. Format: functional.
The subject of assay [20] is Aspergillus niger. Kind of assay: Antifungal activity against Aspergillus niger assessed as zone of inhibition at 25 ug/ml. Format: functional. The following applies: read-out: DIZ.
In another assay the test system is Nakaseomyces glabratus. Kind of assay: Antifungal activity against Candida glabrata. Type of assay: functional.
For a further assay, the system named is Candida tropicalis. Kind of assay: Antifungal activity against Candida tropicalis. Type of assay: functional.
Assay [21] has as its system Candida albicans. Kind of assay: Antifungal activity against Candida albicans. Format: functional.
Another assay deals with Cholinesterase (Homo sapiens, UniProt P06276). Nature of the assay: Inhibition of BChE (unknown origin).
A further assay has as its target Acetylcholinesterase (Homo sapiens, UniProt P22303). Nature of the assay: Inhibition of AChE (unknown origin).
Assay [22] concerns HeLa. Nature of the assay: Antiproliferative activity against human HeLa cells. Format: functional, cell-based.
A further assay has as its system MDA-MB-231. Kind of assay: cells. The following applies: Homo sapiens. Format: functional, cell-based.

≈ marks a conversion by molar mass, not a printed value.

Sequence of Cholinesterase (P06276 whole entry): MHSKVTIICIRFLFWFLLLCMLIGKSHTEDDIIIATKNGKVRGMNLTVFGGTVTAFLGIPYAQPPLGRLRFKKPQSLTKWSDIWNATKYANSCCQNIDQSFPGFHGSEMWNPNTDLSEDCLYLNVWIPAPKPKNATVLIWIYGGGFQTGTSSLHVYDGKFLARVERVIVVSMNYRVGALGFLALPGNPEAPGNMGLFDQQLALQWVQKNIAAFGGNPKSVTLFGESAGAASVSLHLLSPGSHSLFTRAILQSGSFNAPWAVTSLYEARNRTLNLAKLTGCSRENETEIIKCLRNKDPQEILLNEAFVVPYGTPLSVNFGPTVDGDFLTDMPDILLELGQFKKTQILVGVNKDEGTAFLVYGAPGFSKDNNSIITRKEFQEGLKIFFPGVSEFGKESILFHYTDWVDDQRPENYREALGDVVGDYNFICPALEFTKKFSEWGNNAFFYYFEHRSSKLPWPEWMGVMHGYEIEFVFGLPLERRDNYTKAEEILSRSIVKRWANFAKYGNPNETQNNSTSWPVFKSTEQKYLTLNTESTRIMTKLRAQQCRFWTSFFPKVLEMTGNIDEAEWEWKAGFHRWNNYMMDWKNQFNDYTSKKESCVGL
Sequence of Acetylcholinesterase (P22303 whole entry): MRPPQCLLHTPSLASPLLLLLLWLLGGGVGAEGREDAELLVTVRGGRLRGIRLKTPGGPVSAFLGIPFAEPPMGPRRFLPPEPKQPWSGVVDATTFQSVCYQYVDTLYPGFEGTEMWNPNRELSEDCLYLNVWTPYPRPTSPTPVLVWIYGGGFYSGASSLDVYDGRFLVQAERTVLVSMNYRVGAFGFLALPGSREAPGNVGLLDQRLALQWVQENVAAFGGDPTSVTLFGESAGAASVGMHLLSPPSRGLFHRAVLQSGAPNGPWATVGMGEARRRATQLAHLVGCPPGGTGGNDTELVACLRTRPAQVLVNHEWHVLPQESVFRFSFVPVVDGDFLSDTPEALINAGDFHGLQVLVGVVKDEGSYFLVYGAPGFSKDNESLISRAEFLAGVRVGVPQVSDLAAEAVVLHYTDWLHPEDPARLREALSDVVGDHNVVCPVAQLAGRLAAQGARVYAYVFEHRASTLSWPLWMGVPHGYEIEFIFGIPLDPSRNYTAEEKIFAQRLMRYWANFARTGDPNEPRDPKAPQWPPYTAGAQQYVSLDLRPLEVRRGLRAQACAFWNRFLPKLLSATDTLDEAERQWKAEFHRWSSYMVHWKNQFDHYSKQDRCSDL
Description for MDA-MB-231: Antiproliferative activity against human MDA-MB-231 cells

For the compound `O=C1c2c(Cl)cccc2NC2(C(=O)Nc3ccc(Br)cc32)N1Nc1ccccc1` (stereo not drawn), the MIC in [1] was 2 µg/mL (≈ 4.26 µM); in the assay on Micrococcus luteus it was 4 µg/mL (≈ 8.52 µM); in the assay with Streptococcus mutans it was less than 2 µg/mL; in the assay with Klebsiella pneumoniae, 4 µg/mL (≈ 8.52 µM); in the assay with Pseudomonas aeruginosa [2], 8 µg/mL (≈ 17 µM); in the assay on Bacillus subtilis [3], 4 µg/mL (≈ 8.52 µM). The MIC was 2 µg/mL (≈ 4.26 µM) with Staphylococcus aureus [4], less than 2 µg/mL in the assay with Escherichia coli [5], less than 2 µg/mL against Bacillus pumilus and less than 2 µg/mL against Enterococcus faecalis.
For `O=C1OCC2=C1C1(Nc3ccccc3N2)C(=O)N(Cc2ccccc2)c2ccccc21` (stereo not drawn), the IC50 with DU-145 stood at 1.1 µM; in the assay on A549, 1.3 µM; in the assay with MCF7, 2.2 µM; with HeLa [6], 2.3 µM.
Turning to `C[C@H]1COc2c(N3CCN(C)CC3)c(F)cc3c(=O)c(C(=O)O)cn1c23.C[C@H]1COc2c(N3CCN(C)CC3)c(F)cc3c(=O)c(C(=O)O)cn1c23.O` [LEVOFLOXACIN], the MIC in the assay with Pseudomonas aeruginosa [7] and against Pseudomonas aeruginosa [8] was greater than 64 µg/mL throughout.
As to `OC(Cn1cncn1)(Cn1cncn1)c1ccc(F)cc1F` [FLUCONAZOLE], the “diameter of the inhibition zone (DIZ)” value in the assay with Candida albicans [9] was 28 mm; with Aspergillus fumigatus, 25 mm; in the assay with Geotrichum candidum, 30 mm; in [10], 24.1 mm. Further, the MIC with Aspergillus flavus and against Aspergillus niger [11] was 20 µg/mL (≈ 65.3 µM) in each case.
`COc1ccc(CO[C@]2([C@@]3(O)C(=O)Nc4ccccc43)C(=O)Nc3ccccc32)cc1`: the minimal inhibitory concentration (MIC) against Salmonella sp. worked out at 0.038 µg/mL (≈ 0.0913 µM); in the assay on Staphylococcus aureus [12], 0.075 µg/mL (≈ 0.18 µM); with Escherichia coli [13], 0.038 µg/mL (≈ 0.0913 µM); in the assay on Proteus vulgaris it was 0.075 µg/mL (≈ 0.18 µM); in the assay on Pseudomonas aeruginosa [14], 0.038 µg/mL (≈ 0.0913 µM).
Turning to `CCOC1=Nc2ccc(Br)cc2/C1=C\C(=O)c1ccccc1`, the “diameter of the inhibition zone (DIZ)” value in the assay on Escherichia coli [15] was 6 mm; in the assay on Staphylococcus aureus [16], 7 mm.
Take `O=C(O)c1cn(C2CC2)c2cc(N3CCNCC3)c(F)cc2c1=O` [CIPROFLOXACIN]: the MIC is 50 µg/mL (≈ 151 µM) with Staphylococcus aureus [17]; 25 µg/mL (≈ 75.4 µM) with Escherichia coli [18]; 32 µg/mL (≈ 96.6 µM) with Pseudomonas aeruginosa [7]; 32 µg/mL (≈ 96.6 µM) in the assay on Pseudomonas aeruginosa [8]; 6.25 µg/mL (≈ 18.9 µM) against Bacillus subtilis [19].
For the compound `Cc1ccc2c(c1)C1(Nc3ccccc3NC3=C1C(=O)OC3)C(=O)N2` (stereo not drawn), the IC50 in the assay on DU-145 came to 1.3 µM; in the assay with A549 it was 1.5 µM; in the assay on MCF7 it was 2.1 µM; with HeLa [6], 9.6 µM.
As for `CCOC1=Nc2ccccc2/C1=C\C(=O)c1ccccc1O`, the zone of inhibition at 25 µg/mL with Candida metapsilosis came to 11 mm; with Aspergillus niger [20], 10 mm.
For `COc1ccccc1C1C2CCCN2C2(C(=O)Nc3ccccc32)C1C(=O)c1ccc(-c2ccc(F)cc2F)cc1` (stereo not drawn), the MIC with Nakaseomyces glabratus, against Candida tropicalis and against Candida albicans [21] was 12.5 µg/mL (≈ 22.7 µM) each time.
With `O=C(c1ccc(-c2ccc(F)cc2F)cc1)C1C(c2ccc(Cl)cc2)C2CCCN2C12C(=O)Nc1ccccc12` (stereo not drawn), the MIC in the assay with Nakaseomyces glabratus worked out at 25 µg/mL (≈ 45 µM); against Candida tropicalis it was 25 µg/mL (≈ 45 µM); in the assay on Candida albicans [21], 12.5 µg/mL (≈ 22.5 µM).
Regarding `O=C1c2ccccc2NC2(C(=O)Nc3ccc([N+](=O)[O-])cc32)N1Nc1ccccc1` (stereo not drawn), the MIC is 4 µg/mL (≈ 9.97 µM) in assay [1]; 8 µg/mL (≈ 19.9 µM) in the assay on Micrococcus luteus; less than 2 µg/mL in the assay on Streptococcus mutans; 8 µg/mL (≈ 19.9 µM) in the assay with Klebsiella pneumoniae; 32 µg/mL (≈ 79.7 µM) against Pseudomonas aeruginosa [2]; 4 µg/mL (≈ 9.97 µM) in the assay with Bacillus subtilis [3]. Also, the MIC in the assay with Staphylococcus aureus [4] worked out at 4 µg/mL (≈ 9.97 µM); against Escherichia coli [5], 4 µg/mL (≈ 9.97 µM); in the assay on Bacillus pumilus it was 4 µg/mL (≈ 9.97 µM); in the assay with Enterococcus faecalis, 16 µg/mL (≈ 39.9 µM).
With `COc1cc2c(cc1OC)C(=O)[C@]1(C2)[C@H](c2ccccc2OC)[C@H](Cc2c[nH]c3ccccc23)NC12C(=O)Nc1ccccc12` (stereo partly drawn), the half-inhibitory concentration (IC50) worked out at 24 µM against Cholinesterase and 2.76 µM at Acetylcholinesterase.
Regarding `CCC(C)Cn1cc(CN2C(=O)C3(C(C#N)=C(N)Oc4c3ccc3[nH]c5ccccc5c43)c3ccccc32)nn1` (stereo not drawn), the IC50 in the assay with HeLa [22] stood at 14.9 µM; in the assay on MDA-MB-231, 3.8 µM.
Consider `CCOC1=Nc2ccccc2/C1=C\C(=O)c1ccc(Cl)cc1`, for which the “diameter of the inhibition zone (DIZ)” value with Escherichia coli [15] and in the assay with Staphylococcus aureus [16] was 6 mm each time.
In the case of `Cc1ccc([C@H]2[C@@]3(SC(=S)NC3=O)C3CCCN3[C@@]23C(=O)Nc2ccccc23)cc1` (stereo partly drawn), the “diameter of the inhibition zone (DIZ)” value in the assay with Candida albicans [9] turned out to be 27 mm; in the assay with Aspergillus fumigatus, 18 mm; in the assay with Geotrichum candidum, 27 mm; in assay [10], 19 mm.
Consider `COc1cccc([C@@H]2[C@H](Cc3c[nH]c4ccccc34)NC3(C(=O)Nc4ccccc43)[C@@]23Cc2cc(OC)c(OC)cc2C3=O)c1` (stereo partly drawn), for which the values for the IC50 against Cholinesterase and against Acetylcholinesterase were 8.32 µM and 2.31 µM, respectively.

One may read the MIC as the smallest concentration in the dilution series that meets the test's criterion for growth inhibition. For orientation: IC50 means the point on the concentration scale where inhibition reaches its midpoint. A low value points to greater potency in that assay.

The values are drawn from ChEMBL document CHEMBL5226286, “The application of isatin-based multicomponent-reactions in the quest for new bioactive and druglike molecules” (Eur J Med Chem, 2021).
